Measured values from patent US9290478B2, “Substituted quinoxalines as FGFR kinase inhibitors” (ASTEX THERAPEUTICS LTD, priority 2010, dated 2016).

Assays:
FGFR3 (h) = FGFR3 (h) (Homo sapiens, UniProt P22607); assay: FGFR3 (enzymatic assay), TR-FRET; type: biochemical; conditions: 25 μM ATP; read-out: FGFR3 pIC50 (converted)
Method: In a final reaction volume of 30 μL, FGFR3 (h) (40 ng/ml) was incubated with 50 mM HEPES pH 7.5, 6 mM MnCl2, 1 mM DTT, 0.1 mM Na3VO4, 0.01% Triton-X-100, 500 nM Btn-Flt3 and 25 μM ATP in the presence of compound (1% DMSO final). After incubation for 60 minutes at room temperature the reaction was stopped with 2.27 nM EU-anti P-Tyr, 7 mM EDTA, 31.25 nM SA-XL-665 and 0.02% BSA which was present for 60 minutes at room temperature. Time-Resolved Fluorescence Resonance Energy Transfer (TR-FRET) signal (ex340 nm. Em 620 nm, em 655 nm) was measured afterwards and results are expressed in RFU (Relative Fluorescence Units). In this assay, the inhibitory effect of different compound concentrations (range 10 μM to 0.1 nM) was determined and used to calculate an IC50 (M) and pIC50 (−log IC50) value.

[1] = target: T1, Ba/F3-FGFR1-transfected cells (Homo sapiens, UniProt P11362); assay: Ba/F3-FGFR1 (minus IL3 or plus IL3) cellular proliferation assay; type: cell-based; conditions: minus IL3
T1 construct: BAF3-FGFR1 (MIN IL3) pIC50; other: minus IL3
Method: (§1) Ba/F3-FGFR1 (Minus IL3 or Plus IL3) (Cellular Proliferation Assay)
(§2) In a 384 well plate, 100 nl of compound dilution in DMSO was sprayed before adding 50 μl cell culture medium (phenol red free RPMI-1640, 10% FBS, 2 mM L-Glutamine and 50 μg/ml Gentamycin) containing 20000 cells per well of Ba/F3-FGFR1-transfected cells. Cells were put in an incubator at 37° C. and 5% CO2. After 24 hours, 10 μl of Alamar Blue solution (0.5 mM K3Fe(CN)6, 0.5 mM K4Fe(CN)6, 0.15 mM Resazurin and 100 mM Phosphate Buffer) was added to the wells, incubated for 4 hours at 37° C. and 5% CO2 before RFU's (Relative Fluorescence Units) (ex. 540 nm., em. 590 nm.) were measured in a fluororescence plate reader.
(§3) In this assay, the inhibitory effect of different compound concentrations (range 10 μM to 0.1 nM) was determined and used to calculate an IC50 (M) and pIC50 (−log IC50) value.
(§4) As a counterscreen the same experiment was performed in the presence of 10 ng/ml murine IL3.

[2] = test system: Ba/F3-FGFR1-transfected cells; assay: as above; type: cell-based; conditions: plus 10 ng/ml murine IL3 (counterscreen); for IC50: 24 h, read-out: BAF3-FGFR1 (PLUS IL3) pIC50 (converted)
Method: as §1, §2, §3, §4

[3] = target: T2, Ba/F3-Flt3-transfected cells (Homo sapiens, UniProt P36888, cells depend on it, form not given); assay: Ba/F3-Flt3 (minus IL3 or plus IL3) cellular proliferation assay; type: cell-based; conditions: minus IL3
T2 construct: BAF3-FLT3 (MIN IL3) pIC50; other: minus IL3
T2 sequence (P36888 1-993): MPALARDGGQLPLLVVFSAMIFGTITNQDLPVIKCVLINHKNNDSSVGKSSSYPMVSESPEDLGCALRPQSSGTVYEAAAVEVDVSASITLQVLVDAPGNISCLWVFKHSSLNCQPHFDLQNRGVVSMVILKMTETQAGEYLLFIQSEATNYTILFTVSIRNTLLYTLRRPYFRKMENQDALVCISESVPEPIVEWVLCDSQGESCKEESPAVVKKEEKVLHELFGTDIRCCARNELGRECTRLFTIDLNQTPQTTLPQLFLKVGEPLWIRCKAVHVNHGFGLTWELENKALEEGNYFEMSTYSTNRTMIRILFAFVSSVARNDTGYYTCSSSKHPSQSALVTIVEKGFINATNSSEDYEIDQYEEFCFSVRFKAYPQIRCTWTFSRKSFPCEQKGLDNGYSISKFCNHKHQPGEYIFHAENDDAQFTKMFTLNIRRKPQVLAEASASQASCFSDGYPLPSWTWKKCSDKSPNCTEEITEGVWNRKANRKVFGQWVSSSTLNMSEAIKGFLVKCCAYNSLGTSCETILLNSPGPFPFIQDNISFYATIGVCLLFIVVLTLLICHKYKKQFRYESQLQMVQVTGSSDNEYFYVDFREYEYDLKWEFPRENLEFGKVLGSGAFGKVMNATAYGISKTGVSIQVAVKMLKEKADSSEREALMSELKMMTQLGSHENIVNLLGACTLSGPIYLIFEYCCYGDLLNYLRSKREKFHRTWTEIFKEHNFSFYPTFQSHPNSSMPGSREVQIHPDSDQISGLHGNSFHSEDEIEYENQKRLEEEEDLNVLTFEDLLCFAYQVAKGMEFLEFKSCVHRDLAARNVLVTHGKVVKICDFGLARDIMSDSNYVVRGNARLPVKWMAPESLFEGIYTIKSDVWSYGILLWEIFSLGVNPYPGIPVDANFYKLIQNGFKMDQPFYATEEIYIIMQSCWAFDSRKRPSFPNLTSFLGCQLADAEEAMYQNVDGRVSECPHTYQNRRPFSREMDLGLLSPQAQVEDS
Method: (§5) Ba/F3-Flt3 (Minus IL3 or Plus IL3) (Cellular Proliferation Assay)
as §2, with “Ba/F3-Flt3-transfected” for “Ba/F3-FGFR1-transfected”
as §3, §4

[4] = test system: Ba/F3-Flt3-transfected cells; assay: as above; type: cell-based; conditions: plus 10 ng/ml murine IL3 (counterscreen); for IC50: 24 h, read-out: BAF3_FLT3 (PLUS IL3) pIC50 (converted)
Method: as §5
as §2, with “Ba/F3-Flt3-transfected” for “Ba/F3-FGFR1-transfected”
as §3, §4

T1 sequence (P11362 whole entry, change not shown): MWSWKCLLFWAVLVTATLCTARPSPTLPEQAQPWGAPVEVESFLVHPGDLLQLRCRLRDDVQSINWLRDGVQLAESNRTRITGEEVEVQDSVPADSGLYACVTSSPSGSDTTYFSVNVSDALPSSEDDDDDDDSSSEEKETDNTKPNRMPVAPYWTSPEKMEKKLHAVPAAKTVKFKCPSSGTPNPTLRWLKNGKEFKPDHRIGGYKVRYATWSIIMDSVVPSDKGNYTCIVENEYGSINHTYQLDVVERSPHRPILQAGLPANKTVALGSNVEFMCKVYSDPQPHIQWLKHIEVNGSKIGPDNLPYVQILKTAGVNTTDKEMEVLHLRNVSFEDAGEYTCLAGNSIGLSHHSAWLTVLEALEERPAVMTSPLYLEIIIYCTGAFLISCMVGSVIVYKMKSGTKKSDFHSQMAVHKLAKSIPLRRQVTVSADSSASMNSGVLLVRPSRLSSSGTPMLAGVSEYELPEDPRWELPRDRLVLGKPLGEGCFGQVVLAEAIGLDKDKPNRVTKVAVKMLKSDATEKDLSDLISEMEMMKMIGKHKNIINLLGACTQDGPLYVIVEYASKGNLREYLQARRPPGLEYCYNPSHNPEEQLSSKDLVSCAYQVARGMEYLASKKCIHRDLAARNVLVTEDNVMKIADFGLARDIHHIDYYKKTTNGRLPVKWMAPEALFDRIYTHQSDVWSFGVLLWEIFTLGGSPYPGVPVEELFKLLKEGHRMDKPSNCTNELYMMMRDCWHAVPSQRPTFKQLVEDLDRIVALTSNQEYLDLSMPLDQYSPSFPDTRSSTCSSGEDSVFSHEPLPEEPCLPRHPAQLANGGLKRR
FGFR3 (h), sequence (P22607 23-806): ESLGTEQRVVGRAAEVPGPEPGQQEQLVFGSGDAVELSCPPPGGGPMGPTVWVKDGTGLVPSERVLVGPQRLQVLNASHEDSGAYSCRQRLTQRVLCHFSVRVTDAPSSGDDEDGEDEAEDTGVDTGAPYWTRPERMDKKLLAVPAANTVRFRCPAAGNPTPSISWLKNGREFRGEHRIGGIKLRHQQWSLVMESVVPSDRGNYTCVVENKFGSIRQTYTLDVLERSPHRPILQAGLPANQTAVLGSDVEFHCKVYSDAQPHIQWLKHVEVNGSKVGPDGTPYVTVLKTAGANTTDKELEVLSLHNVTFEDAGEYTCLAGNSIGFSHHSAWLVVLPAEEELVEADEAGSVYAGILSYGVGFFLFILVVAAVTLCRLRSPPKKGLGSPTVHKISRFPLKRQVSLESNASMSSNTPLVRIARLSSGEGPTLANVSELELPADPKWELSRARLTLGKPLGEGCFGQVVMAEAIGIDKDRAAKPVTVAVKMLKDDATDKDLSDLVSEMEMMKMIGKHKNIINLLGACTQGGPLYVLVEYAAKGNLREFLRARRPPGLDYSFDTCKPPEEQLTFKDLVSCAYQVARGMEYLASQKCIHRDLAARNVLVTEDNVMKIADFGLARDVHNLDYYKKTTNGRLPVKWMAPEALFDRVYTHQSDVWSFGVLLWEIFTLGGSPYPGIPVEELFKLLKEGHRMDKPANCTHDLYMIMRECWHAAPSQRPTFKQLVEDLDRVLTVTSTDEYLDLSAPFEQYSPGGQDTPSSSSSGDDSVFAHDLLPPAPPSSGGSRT

SMILES | IC50 (FGFR3 (h)) [nM] | BAF3-FGFR1 (MIN IL3) pIC50 [1] | IC50 [2] [nM] | BAF3-FLT3 (MIN IL3) pIC50 [3] | IC50 [4] [nM] | BAF3-FGFR1 (PLUS IL3) pIC50 [2] | BAF3_FLT3 (PLUS IL3) pIC50 [4]
COc1cc(OC)cc(C(O)(CNCCNC(C)C)c2ccc3ncc(-c4cnn(C)c4)nc3c2)c1 (single isomer, unassigned) [Compound 5] | 575 | <5 | > 10000 | <5 | > 10000 | – | –
COc1cc(OC)cc(C(O)(CNCCNC(C)C)c2ccc3ncc(-c4cnn(C)c4)nc3c2)c1 (single isomer, unassigned) [Compound 6] | 676 | <5 | – | <5 | – | – | –
COc1cc(OC)cc(C(CCNC(C)C)c2ccc3ncc(-c4cnn(C)c4)nc3c2)c1 (single isomer, unassigned) [Compound 19a] | 21.4 | 6.93 | > 10000 | <5 | > 10000 | – | –
COc1cc(OC)cc(C(NCCNC(C)C)c2ccc3ncc(-c4cnn(C)c4)nc3c2)c1.Cl (single isomer, unassigned) [Compound 24] | 257 | 5.16 | > 10000 | <5 | > 10000 | – | –
COc1cc(OC)cc(C(CCNC(C)C)c2ccc3ncc(-c4cnn(C)c4)nc3c2)c1 (single isomer, unassigned) [Compound 32a] | ~912 | 5.14 | – | <5 | – | <5 | <5
CNCC(O)(c1cc(OC)cc(OC)c1)c1ccc2ncc(-c3cnn(C)c3)nc2c1.Cl (single isomer, unassigned) [Compound 37] | 537 | <5 | > 10000 | <5 | > 10000 | – | –
CNCC(O)(c1cc(OC)cc(OC)c1)c1ccc2ncc(-c3cnn(C)c3)nc2c1.Cl (single isomer, unassigned) [Compound 38] | > 1000 | <5 | – | <5 | – | <5 | <5
COc1cc(OC)cc(C(NCCNC(C)C)c2ccc3ncc(-c4cnn(C)c4)nc3c2)c1.Cl (single isomer, unassigned) [Compound 39] | > 1000 | <5 | – | <5 | – | <5 | <5
COc1cc(OC)cc(C(=O)c2ccc3ncc(-c4cnn(C)c4)nc3c2)c1 [Compound 2] | 66.1 | 5.58 | > 10000 | <5 | > 10000 | – | –
COc1cc(OC)cc(/C(=C/C#N)c2ccc3ncc(-c4cnn(C)c4)nc3c2)c1 [Compound 3] | 2190 | <5 | > 10000 | <5 | > 10000 | – | –
COc1cc(OC)cc(/C(=C\C#N)c2ccc3ncc(-c4cnn(C)c4)nc3c2)c1 [Compound 4] | 36.3 | 5.3 | > 10000 | 5.29 | > 10000 | – | –
COc1cc(OC)cc(C(CCN2CCCC2=O)c2ccc3ncc(-c4cnn(C)c4)nc3c2)c1.Cl (centres unmarked) [Compound 7] | ~12.6 | 5.52 | > 10000 | <5 | > 10000 | – | –
COc1cc(OC)cc(/C(=C\CNC(C)C)c2ccc3ncc(-c4cnn(C)c4)nc3c2)c1 [Compound 8, {(Z)-3-(3,5-Dimethoxy-phenyl)-3-[3-(1-methyl-1H-pyrazol-4-yl)-quinoxalin-6-yl]-allyl}-isopropyl-amine] | 8.71 | 6.49 | > 10000 | 5.09 | ~8710 | – | –
COc1cc(OC)cc(/C(=C/CNC(C)C)c2ccc3ncc(-c4cnn(C)c4)nc3c2)c1 [Compound 9] | 123 | 6.51 | > 10000 | ~5.05 | > 10000 | – | –
COc1cc(OC)cc(/C(=C\CN(C)C)c2ccc3ncc(-c4cnn(C)c4)nc3c2)c1 [Compound 10, {(Z)-3-(3,5-Dimethoxy-phenyl)-3-[3-(1-methyl-1H-pyrazol-4-yl)-quinoxalin-6-yl]-allyl}-dimethyl-amine] | 9.12 | 5.81 | > 10000 | <5 | > 10000 | – | –
COc1cc(OC)cc(/C(=C\CNCC(F)(F)F)c2ccc3ncc(-c4cnn(C)c4)nc3c2)c1 [Compound 14, {(Z)-3-(3,5-Dimethoxy-phenyl)-3-[3-(1-methyl-1H-pyrazol-4-yl)-quinoxalin-6-yl]-allyl}-(2,2,2-trifluoro-ethyl)-amine] | 4.68 | 6.17 | > 10000 | <5 | > 10000 | – | –
COc1cc(OC)cc(C(CC#N)c2ccc3ncc(-c4cnn(C)c4)nc3c2)c1 (centres unmarked) [Compound 18] | 43.7 | 5.6 | > 10000 | <5 | > 10000 | – | –
COc1cc(OC)cc(C(CCN)c2ccc3ncc(-c4cnn(C)c4)nc3c2)c1.Cl (centres unmarked) [Compound 20] | 61.7 | 5.86 | > 10000 | <5 | > 10000 | – | –
COc1cc(OC)cc(C(CCN(C)C)c2ccc3ncc(-c4cnn(C)c4)nc3c2)c1.Cl (centres unmarked) [Compound 21] | 67.6 | 5.95 | > 10000 | <5 | > 10000 | – | –
COc1cc(OC)cc(C(CCO)c2ccc3ncc(-c4cnn(C)c4)nc3c2)c1 (centres unmarked) [Compound 22] | 51.3 | 5.66 | > 10000 | <5 | > 10000 | – | –
